Data on two substances can be found in patent US10227388B2, “Peptides and combination of peptides for use in immunotherapy against non-small cell lung cancer and other cancers” (immatics biotechnologies GmbH, priority 2015, dated 2019).

The target in one test is HLA-A*02:01 (Homo sapiens, UniProt P04439, D140Y/D185E/D98H/E176V/E277Q/G131W/G231S/I119V/I121R/I166T/I218V/L300P/L318F/N151K/N90K/P208A/P217A/Q86G/Q94H/R138H/R169H/T345S). Description: MHC binding assay (UV-ligand exchange, ELISA, peptide exchange yield). The following applies: binding of HLA-class I restricted peptides to HLA-A*02:01. In outline:
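Peptide–HLA-A*02:01 complexes made by UV-ligand exchange of a UV-cleavable peptide for the test peptide. Exchange yield measured by ELISA: 100-fold diluted monomers captured on streptavidin, 1 h at 37° C., detected with HRP anti-β2m and TMB, absorbance at 450 nm.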

A further test relates to CD8+ T cells. The test is described as follows: In vitro immunogenicity: T-cell priming with artificial antigen presenting cells loaded with peptide/MHC complexes and anti-CD28 antibody, multimer readout. It is filed as cell-based, human. As for the experimental part:
In an aspect, the peptides are pre-screened for immunogenicity before being included in the warehouse. By way of example, and not limitation, the immunogenicity of the peptides included in the warehouse is determined by a method comprising in vitro T-cell priming through repeated stimulations of CD8+ T cells from healthy donors with artificial antigen presenting cells loaded with peptide/MHC complexes and anti-CD28 antibody.
In order to obtain information regarding the immunogenicity of the TUMAPs of the present invention, the inventors performed investigations using an in vitro T-cell priming assay based on repeated stimulations of CD8+ T cells with artificial antigen presenting cells (aAPCs) loaded with peptide/MHC complexes and anti-CD28 antibody.
In order to perform in vitro stimulations by artificial antigen presenting cells loaded with peptide-MHC complex (pMHC) and anti-CD28 antibody, the inventors first isolated CD8+ T cells from fresh HLA-A*02 leukapheresis products via positive selection using CD8 microbeads (Miltenyi Biotec, Bergisch-Gladbach, Germany) of healthy donors obtained from the University clinics Mannheim, Germany, after informed consent.
PBMCs and isolated CD8+ lymphocytes were incubated in T-cell medium (TCM) until use consisting of RPMI-Glutamax (Invitrogen, Karlsruhe, Germany) supplemented with 10% heat inactivated human AB serum (PAN-Biotech, Aidenbach, Germany), 100 U/ml Penicillin/100 μg/ml Streptomycin (Cambrex, Cologne, Germany), 1 mM sodium pyruvate (CC Pro, Oberdorla, Germany), 20 μg/ml Gentamycin (Cambrex). 2.5 ng/ml IL-7 (PromoCell, Heidelberg, Germany) and 10 U/ml IL-2 (Novartis Pharma, Nürnberg, Germany) were also added to the TCM at this step.
Generation of pMHC/anti-CD28 coated beads, T-cell stimulations and readout was performed in a highly defined in vitro system using four different pMHC molecules per stimulation condition and 8 different pMHC molecules per readout condition.
The purified co-stimulatory mouse IgG2a anti human CD28 Ab 9.3 (Jung et al., 1987) was chemically biotinylated using Sulfo-N-hydroxysuccinimidobiotin as recommended by the manufacturer (Perbio, Bonn, Germany). Beads used were 5.6 μm diameter streptavidin coated polystyrene particles (Bangs Laboratories, Illinois, USA).
pMHC used for positive and negative control stimulations were A*0201/MLA-001 (peptide […] (SEQ ID NO. 664) from modified Melan-A/MART-1) and A*0201/DDX5-001 ([…] from DDX5, SEQ ID NO. 665), respectively.
800.000 beads/200 μl were coated in 96-well plates in the presence of 4×12.5 ng different biotin-pMHC, washed and 600 ng biotin anti-CD28 were added subsequently in a volume of 200 μl. Stimulations were initiated in 96-well plates by co-incubating 1×10^6 CD8+ T cells with 2×10^5 washed coated beads in 200 μl TCM supplemented with 5 ng/ml IL-12 (PromoCell) for 3 days at 37° C. Half of the medium was then exchanged by fresh TCM supplemented with 80 U/ml IL-2 and incubating was continued for 4 days at 37° C. This stimulation cycle was performed for a total of three times. For the pMHC multimer readout using 8 different pMHC molecules per condition, a two-dimensional combinatorial coding approach was used as previously described (Andersen et al., 2012) with minor modifications encompassing coupling to 5 different fluorochromes. Finally, multimeric analyses were performed by staining the cells with Live/dead near IR dye (Invitrogen, Karlsruhe, Germany), CD8-FITC antibody clone SK1 (BD, Heidelberg, Germany) and fluorescent pMHC multimers. For analysis, a BD LSRII SORP cytometer equipped with appropriate lasers and filters was used. Peptide specific cells were calculated as percentage of total CD8+ cells. Evaluation of multimeric analysis was done using the FlowJo software (Tree Star, Oreg., USA). In vitro priming of specific multimer+CD8+ lymphocytes was detected by comparing to negative control stimulations. […]

Regarding “283 (ALYIGDGYVIHLA; listed as Homo sapiens) [compound 283]”, the “Peptide exchange (MHC class I binding score, peptide exchange yield)” value with HLA-A*02:01 was “″+++″ (≥50% = +++)”. For the same substance, in the test on CD8+ T cells (percentage of positive donors), the “in vitro immunogenicity, donors” value is listed as “+++ (50%-69% = +++)”. For the same substance, in the test with CD8+ T cells (percentage of positive wells), the “in vitro immunogenicity, wells” value is listed as “+ (<20% = +)”.
In the case of “3 (SLASKLTTL; listed as Homo sapiens) [compound 3]”, the “Peptide exchange (MHC class I binding score, peptide exchange yield)” value in the test with HLA-A*02:01 is on record as “″++++″ (≥75% = ++++)”. The “Wells positive [%]” value in the test with CD8+ T cells (HLA-A*02 restricted peptides, positive wells among evaluable) is “″+″ (<20% = +)”.
